Assay results published in patent US9096583B2, “Substituted 1,2,5-oxadiazole compounds and their use as herbicides II” (BASF SE, priority 2011, dated 2015).

Legend:
ABUTH = assay: greenhouse post-emergence herbicidal test, ABUTH; format: in vivo, Abutilon theophrasti; conditions: post-emergence method, application rate 1 kg/ha, scale from 0 to 100
Excerpt: (§1) The seeds of the test plants were sown separately for each species. For the post-emergence treatment, the test plants were first grown to a height of 3 to 15 cm, depending on the plant habit, and only then treated with the active ingredients which had been suspended or emulsified in water. For this purpose, the test plants were either sown directly and grown in the same containers, or they were first grown separately as seedlings and transplanted into the test containers a few days prior to treatment. Depending on the species, the plants were kept at 10-25° C. or 20-35° C. The test period extended over 2 to 4 weeks. During this time, the plants were tended, and their response to the individual treatments was evaluated. Evaluation was carried out using a scale from 0 to 100. 100 means no emergence of the plants, or complete destruction of at least the aerial moieties, and 0 means no damage, or normal course of growth. A good herbicidal activity is given at values of at least 70 and a very good herbicidal activity is given at values of at least 85. [table]

ALOMY = assay: greenhouse post-emergence herbicidal test, ALOMY; format: in vivo, Alopecurus myosuroides; conditions: post-emergence method, application rate 0.25 kg/ha, scale from 0 to 100
Excerpt: as §1

SMILES | herbicidal activity against ABUTH (ABUTH) | herbicidal activity against ALOMY (ALOMY)
Cc1nonc1NC(=O)c1ccc(Cl)c2ncccc12 [I′.A-113] | good herbicidal activity (A good herbicidal activity is given at values of at least 70) | –
COc1nonc1NC(=O)c1ccc2c(c1Cl)S(=O)(=O)CCC2(C)C [I″.A-8] | – | very good herbicidal activity (a very good herbicidal activity is given at values of at least 85)
